Test results as given in ChEMBL document CHEMBL4483862, “Open-source discovery of chemical leads for next-generation chemoprotective antimalarials” (2018).

Tested on: Plasmodium berghei
Assay: Luciferase/luciferin-expressing antifolate-resistant parasites were used to infect a culture of HepG2 cells that were pre-incubated with compounds. Infected hepatocytes emit light due to the luciferase reaction. Assay results are presented as the percent inhibition of light emission compared to control. […]
Type: functional
Details: sporozoite; for IC90: read-out: LUCIFERASE INFECTION ASSAY - IC90

SMILES	IC90	other results
Cc1nn(-c2ccc(F)cc2)c(Cl)c1/C=C1\C(=O)Nc2ccccc21	4.68 µM	IC50 (HEPG2TOX_HILL_SLOPE 2.09, HEPG2TOX_R_SQUARED 0.992, PBLUC_HILL_SLOPE 1.31, PBLUC_R_SQUARED 0.551, read-out: LUCIFERASE INFECTION ASSAY - IC50): 0.878 µM
CCCOc1ccc(C(=O)CCC(=O)NNC(=O)c2ccncc2)cc1	5.4 µM	IC50 (HEPG2TOX_HILL_SLOPE 2.12, HEPG2TOX_R_SQUARED 0.868, PBLUC_HILL_SLOPE 86, PBLUC_R_SQUARED 0.219, read-out: LUCIFERASE INFECTION ASSAY - IC50): 5.26 µM
COc1cc(-c2ccc3ncc(-c4cccc(CO)c4)n3n2)cc(OC)c1OC	2.51 µM	IC50 (HEPG2TOX_HILL_SLOPE 2.11, HEPG2TOX_R_SQUARED 0.989, PBLUC_HILL_SLOPE 5.29, PBLUC_R_SQUARED 0.606, read-out: LUCIFERASE INFECTION ASSAY - IC50): 1.66 µM
CCOC(=O)c1sc(NC(=O)Nc2ccc([N+](=O)[O-])cc2)cc1C	4.91 µM	IC50 (HEPG2TOX_HILL_SLOPE 2.1, HEPG2TOX_R_SQUARED 0.922, PBLUC_HILL_SLOPE 2.24, PBLUC_R_SQUARED 0.786, read-out: LUCIFERASE INFECTION ASSAY - IC50): 1.84 µM
N#C/C(=N\Nc1cccc(C(F)(F)F)c1)S(=O)(=O)c1ccsc1	> 9.18 µM	IC50 (HEPG2TOX_HILL_SLOPE 2.11, HEPG2TOX_R_SQUARED 0.943, PBLUC_HILL_SLOPE 4.11, PBLUC_R_SQUARED 0.604, read-out: LUCIFERASE INFECTION ASSAY - IC50): 6.42 µM
O=c1c(Cl)c(Cl)cnn1-c1nc2ccccc2[nH]1	1.65 µM	IC50 (HEPG2TOX_HILL_SLOPE 2.11, HEPG2TOX_R_SQUARED 0.958, PBLUC_HILL_SLOPE 7.93, PBLUC_R_SQUARED 0.809, read-out: LUCIFERASE INFECTION ASSAY - IC50): 1.25 µM
OCc1ccc(-c2cnc3ccc(-c4ccccc4)nn23)cc1	3.93 µM	IC50 (HEPG2TOX_HILL_SLOPE 2.14, HEPG2TOX_R_SQUARED 0.888, PBLUC_HILL_SLOPE 1.3, PBLUC_R_SQUARED 0.716, read-out: LUCIFERASE INFECTION ASSAY - IC50): 0.73 µM
COc1ccc(-c2cnc3ccc(NCc4ccc(F)cc4)nn23)cc1	3.94 µM	IC50 (HEPG2TOX_HILL_SLOPE 2.12, HEPG2TOX_R_SQUARED 0.979, PBLUC_HILL_SLOPE 9.57, PBLUC_R_SQUARED 0.534, read-out: LUCIFERASE INFECTION ASSAY - IC50): 3.13 µM
CC(C)NC(=O)c1c(NC(=O)c2ccc(Cl)cc2)nc2ccccn12	1.07 µM	IC50 (HEPG2TOX_HILL_SLOPE 2.11, HEPG2TOX_R_SQUARED 0.869, PBLUC_HILL_SLOPE 50.8, PBLUC_R_SQUARED 0.665, read-out: LUCIFERASE INFECTION ASSAY - IC50): 1.02 µM
CC1CCC(C(C)C)C(OC(=O)C[n+]2cn(C)c3ccccc32)C1 (centres undefined)	3.79 µM	IC50 (HEPG2TOX_HILL_SLOPE 2.1, HEPG2TOX_R_SQUARED 0.908, PBLUC_HILL_SLOPE 16.2, PBLUC_R_SQUARED 0.404, read-out: LUCIFERASE INFECTION ASSAY - IC50): 3.31 µM
C/N=c1\scc(-c2ccc(OC(F)F)cc2)n1/N=C/c1ccccc1Br	3.26 µM	IC50 (HEPG2TOX_HILL_SLOPE 2.13, HEPG2TOX_R_SQUARED 0.347, PBLUC_HILL_SLOPE 0.898, PBLUC_R_SQUARED 0.747, read-out: LUCIFERASE INFECTION ASSAY - IC50): 0.283 µM
Clc1cccc(-c2cnc3sc(NCCc4ccncc4)nn23)c1	> 9.27 µM	IC50 (HEPG2TOX_HILL_SLOPE 2.13, HEPG2TOX_R_SQUARED 0.945, PBLUC_HILL_SLOPE 2.85, PBLUC_R_SQUARED 0.464, read-out: LUCIFERASE INFECTION ASSAY - IC50): 5.6 µM
Cc1cc(C(=O)OCC(=O)Nc2cccc(C#N)c2)c(C)n1-c1ccccc1	> 10 µM	IC50 (HEPG2TOX_HILL_SLOPE 2.12, HEPG2TOX_R_SQUARED 0.531, read-out: LUCIFERASE INFECTION ASSAY - IC50): > 10 µM
Cc1ccc(NC(=O)COCc2nc3ccccc3s2)cc1S(=O)(=O)Nc1ccccc1F	> 10 µM	IC50 (HEPG2TOX_HILL_SLOPE 2.14, HEPG2TOX_R_SQUARED 0.975, PBLUC_HILL_SLOPE 2, PBLUC_R_SQUARED 0.573, read-out: LUCIFERASE INFECTION ASSAY - IC50): 4.27 µM
CCc1cccc2c(C3=NNC(=Nc4cccc(S(=O)(=O)N(C)C)c4)SC3)c[nH]c12	3.4 µM	IC50 (HEPG2TOX_HILL_SLOPE 2.11, HEPG2TOX_R_SQUARED 0.991, PBLUC_HILL_SLOPE 17, PBLUC_R_SQUARED 0.266, read-out: LUCIFERASE INFECTION ASSAY - IC50): 2.99 µM
CC1Cc2cc(C(=O)CSc3nnc(Cc4cccs4)n3C)ccc2N1S(C)(=O)=O (centres undefined)	> 10 µM	IC50 (HEPG2TOX_HILL_SLOPE 2.13, 1.88, HEPG2TOX_R_SQUARED 0.890, 0.990, PBLUC_HILL_SLOPE 2.16, PBLUC_R_SQUARED 0.278, read-out: LUCIFERASE INFECTION ASSAY - IC50): 3.7 µM

SMILES	IC90	other results
C=CS(=O)(=O)Oc1cc(C)cc(C)c1	> 10 µM	IC50 (HEPG2TOX_HILL_SLOPE 2.11, HEPG2TOX_R_SQUARED 0.803, read-out: LUCIFERASE INFECTION ASSAY - IC50): > 10 µM
Cc1ccc2c(c1)C(c1ccccc1C(F)(F)F)CC(=O)N2 (centres undefined)	> 10.8 µM	IC50 (HEPG2TOX_HILL_SLOPE 2.11, HEPG2TOX_R_SQUARED 0.713, PBLUC_HILL_SLOPE 2.64, PBLUC_R_SQUARED 0.143, read-out: LUCIFERASE INFECTION ASSAY - IC50): 5.8 µM
CCOC(=O)c1c(NC(=O)CNCc2ccccn2)sc(CC)c1C	6.49 µM	IC50 (HEPG2TOX_HILL_SLOPE 2.14, HEPG2TOX_R_SQUARED 0.831, PBLUC_HILL_SLOPE 2.51, PBLUC_R_SQUARED 0.552, read-out: LUCIFERASE INFECTION ASSAY - IC50): 2.7 µM
Cc1ccc(C)c(OCC(O)CN2CCN(Cc3nc(-c4ccc(Cl)cc4)no3)CC2)c1 (centres undefined)	7.62 µM	IC50 (HEPG2TOX_HILL_SLOPE 2.12, HEPG2TOX_R_SQUARED 0.919, PBLUC_HILL_SLOPE 1.87, PBLUC_R_SQUARED 0.881, read-out: LUCIFERASE INFECTION ASSAY - IC50): 2.36 µM
CCc1ccc(Cl)c(CC)c1NC(=O)CCc1c(C)c2ccc(C)cc2oc1=O	> 10 µM	IC50 (HEPG2TOX_HILL_SLOPE 2.1, HEPG2TOX_R_SQUARED 0.669, read-out: LUCIFERASE INFECTION ASSAY - IC50): > 10 µM
COc1ccc(C2CCCCCN2C(=O)c2csc(-c3ccsc3)n2)cc1 (centres undefined)	> 10 µM	IC50 (HEPG2TOX_HILL_SLOPE 2.14, HEPG2TOX_R_SQUARED 0.977, PBLUC_HILL_SLOPE 2.8, PBLUC_R_SQUARED 0.0937, read-out: LUCIFERASE INFECTION ASSAY - IC50): 5.38 µM
O=C(Nc1ncc(Cc2ccccc2Br)s1)c1ccc2nc[nH]c2c1	> 10 µM	IC50 (HEPG2TOX_HILL_SLOPE 2.12, HEPG2TOX_R_SQUARED 0.698, PBLUC_HILL_SLOPE 2.32, PBLUC_R_SQUARED 0.476, read-out: LUCIFERASE INFECTION ASSAY - IC50): 4.08 µM
Fc1ccc2[nH]cc(CCNc3nc(Cl)nc4nc[nH]c34)c2c1	4.27 µM	IC50 (HEPG2TOX_HILL_SLOPE 2.14, HEPG2TOX_R_SQUARED 0.948, PBLUC_HILL_SLOPE 1.79, PBLUC_R_SQUARED 0.853, read-out: LUCIFERASE INFECTION ASSAY - IC50): 1.25 µM
O=C(Nc1ccc(OC(F)(F)F)cc1)Nc1nnc(C(F)(F)F)s1	0.377 µM	IC50 (HEPG2TOX_HILL_SLOPE 2.11, HEPG2TOX_R_SQUARED 0.979, PBLUC_HILL_SLOPE 11.8, PBLUC_R_SQUARED 0.539, read-out: LUCIFERASE INFECTION ASSAY - IC50): 0.313 µM
COc1cc(-c2[nH]nc3nccc(-c4ccc(C(C)C)cc4)c23)cc(OC)c1OC	> 10 µM	IC50 (HEPG2TOX_HILL_SLOPE 2.15, HEPG2TOX_R_SQUARED 0.552, PBLUC_HILL_SLOPE 10.1, PBLUC_R_SQUARED 0.355, read-out: LUCIFERASE INFECTION ASSAY - IC50): 8.21 µM
CN(CC(=O)Nc1ccc(OC(F)(F)F)cc1)Cc1cc(=O)n2c([nH]c3ccccc32)c1C#N	> 10 µM	IC50 (HEPG2TOX_HILL_SLOPE 2.12, HEPG2TOX_R_SQUARED 0.883, PBLUC_HILL_SLOPE 1.9, PBLUC_R_SQUARED 0.564, read-out: LUCIFERASE INFECTION ASSAY - IC50): 4.93 µM
O=S(=O)(Nc1cc(C(F)(F)F)cc(C(F)(F)F)c1)c1cc(F)c(Br)cc1F	5.67 µM	IC50 (HEPG2TOX_HILL_SLOPE 2.12, HEPG2TOX_R_SQUARED 0.942, PBLUC_HILL_SLOPE 3.41, PBLUC_R_SQUARED 0.612, read-out: LUCIFERASE INFECTION ASSAY - IC50): 2.98 µM
Cc1cc[n+](CC(=O)Nc2ccc(OC(F)F)cc2)c2ccccc12	1.27 µM	IC50 (HEPG2TOX_HILL_SLOPE 2.14, HEPG2TOX_R_SQUARED 0.242, PBLUC_HILL_SLOPE 15.8, PBLUC_R_SQUARED 0.258, read-out: LUCIFERASE INFECTION ASSAY - IC50): 1.1 µM
Cc1nn(-c2ccccn2)c2nc(-c3ccc4c(c3)OCO4)ccc12	> 10 µM	IC50 (HEPG2TOX_HILL_SLOPE 2.11, HEPG2TOX_R_SQUARED 0.932, read-out: LUCIFERASE INFECTION ASSAY - IC50): > 10 µM
COc1ccc(NC(=O)c2nnc(CSc3nc(C)cc(-c4ccccc4)n3)s2)cc1	0.616 µM	IC50 (HEPG2TOX_HILL_SLOPE 2.12, HEPG2TOX_R_SQUARED 0.961, PBLUC_HILL_SLOPE 18.1, PBLUC_R_SQUARED 0.668, read-out: LUCIFERASE INFECTION ASSAY - IC50): 0.546 µM
CC(=O)c1c(C)[nH]c(C(=O)C(C)Sc2nc3ccccc3o2)c1C (centres undefined)	> 10 µM	IC50 (HEPG2TOX_HILL_SLOPE 2.15, HEPG2TOX_R_SQUARED 0.56, PBLUC_HILL_SLOPE 10.4, PBLUC_R_SQUARED 0.465, read-out: LUCIFERASE INFECTION ASSAY - IC50): 8.44 µM
